Results on two molecules are retold here after patent US5036083A, “Heterocyclic agents” (ICI Pharma, priority 1988, dated 1991).

One data set has as its system dogs. Kind of data set: Induction of methaemoglobin formation in dogs dosed orally. Type of data set: in vivo, dog. As to conditions: oral, 5 mg/kg. The text has this:
In copending European Application No. 88300281.8 (published 28th Sept., 1988 as EP 0284174 Al) it is disclosed that certain indazolone derivatives are effective as inhibitors of the enzyme 5-LO and thus of leukotriene biosyntheses.

The target in data set [1] is T1, 5-LO (Cavia porcellus, UniProt A0A286X958).
T1 construct: cell free system using 5-LO isolated from guinea pig neutrophils; endogenous in cells; host or cells: guinea pig neutrophils
T1 sequence (A0A286X958 1-674): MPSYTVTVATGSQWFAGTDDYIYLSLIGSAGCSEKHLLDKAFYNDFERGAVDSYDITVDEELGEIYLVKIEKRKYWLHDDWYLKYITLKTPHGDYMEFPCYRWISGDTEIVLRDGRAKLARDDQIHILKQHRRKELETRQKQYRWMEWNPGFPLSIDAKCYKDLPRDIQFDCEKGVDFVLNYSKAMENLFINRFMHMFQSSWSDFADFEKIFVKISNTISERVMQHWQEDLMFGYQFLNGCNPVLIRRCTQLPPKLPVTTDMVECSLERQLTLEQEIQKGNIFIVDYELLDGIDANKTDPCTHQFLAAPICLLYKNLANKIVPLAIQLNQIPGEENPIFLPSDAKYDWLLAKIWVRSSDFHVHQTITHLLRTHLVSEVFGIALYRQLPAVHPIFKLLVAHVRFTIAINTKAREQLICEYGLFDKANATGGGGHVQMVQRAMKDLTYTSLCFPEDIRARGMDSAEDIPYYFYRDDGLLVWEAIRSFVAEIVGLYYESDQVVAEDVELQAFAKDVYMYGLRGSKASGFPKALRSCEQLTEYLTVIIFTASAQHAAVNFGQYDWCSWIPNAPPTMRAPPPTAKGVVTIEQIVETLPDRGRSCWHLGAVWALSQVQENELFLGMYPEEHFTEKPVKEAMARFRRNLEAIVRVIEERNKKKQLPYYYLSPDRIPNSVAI
Briefly: Test (a): in vitro spectrophotometric cell-free enzyme assay, 5-LO isolated from guinea pig neutrophils. Type of data set: biochemical. As to conditions: 5-LO from guinea pig neutrophils. The text has this:
(a) An in vitro spectrophotometric enzyme assay system, which assesses the inhibitory properties of a test compound in a cell free system using 5-LO isolated from guinea pig neutrophils and as described by D. Aharony and R. L. Stein (J. Biol. Chem., 1986, 261(25), 11512-11519). This test provides a measure of the intrinsic inhibitory properties against soluble 5-LO in an extracellular environment.

The target of a further data set is T2, cyclooxygenase (Rattus norvegicus, UniProt Q63921).
T2 construct: incubating a test compound with heparinised rat blood; from tissue; host or cells: heparinised rat blood
T2 sequence (Q63921 27-602): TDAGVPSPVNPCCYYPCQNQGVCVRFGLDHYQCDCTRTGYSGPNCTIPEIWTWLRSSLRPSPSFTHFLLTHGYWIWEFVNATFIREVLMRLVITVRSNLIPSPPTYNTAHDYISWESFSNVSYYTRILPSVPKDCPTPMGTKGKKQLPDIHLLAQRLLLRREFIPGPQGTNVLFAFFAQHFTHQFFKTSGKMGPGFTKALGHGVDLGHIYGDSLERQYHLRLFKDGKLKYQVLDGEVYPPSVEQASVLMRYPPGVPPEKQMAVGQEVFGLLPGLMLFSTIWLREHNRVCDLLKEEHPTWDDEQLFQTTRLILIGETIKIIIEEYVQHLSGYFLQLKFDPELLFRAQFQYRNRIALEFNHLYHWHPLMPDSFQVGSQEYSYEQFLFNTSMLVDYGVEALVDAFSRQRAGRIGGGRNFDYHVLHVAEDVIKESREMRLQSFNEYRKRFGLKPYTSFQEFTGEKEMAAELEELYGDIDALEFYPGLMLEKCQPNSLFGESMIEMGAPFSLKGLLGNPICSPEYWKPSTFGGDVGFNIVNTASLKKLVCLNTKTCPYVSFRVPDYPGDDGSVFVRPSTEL
Briefly: Test (b): heparinised rat blood challenged with A23187, PGE2 radioimmunoassay. Type of data set: cell-based. Here is the method:
(§1) (b) An in vitro assay system involving incubating a test compound with heparinised rat blood, prior to challenge with the calcium ionophore A23187 and then indirectly measuring the inhibitory effects on 5-LO by assaying the amount of LTB4 using the specific radioimmunoassay described by Carey and Forder (F. Carey and R. A. Forder, Brit. J. Pharmacol. 1985, 84, 34P) which involves the use of a protein-LTB4 conjugate produced using the procedure of Young et alia Prostaglandins, 1983, 26(4), 605-613). The effects of a test compound on the enzyme cyclooxygenase (which is involved in the alternative metabolic pathway for arachidonic acid and gives rise to prostaglandins, thromboxanes and related metabolites) may be measured at the same time using the specific radioimmunoassay for prostaglandin E2 (PGE2) described by Carey and Forder (see above). This test provides an indication of the effects of a test compound against 5-LO and also cyclooxygenase in the presence of blood cells and proteins. It permits the selectivity of the inhibitory effect on 5-LO or cyclooxygenase to be assessed.

Data set [2] concerns the target T3, 5-LO (Rattus norvegicus, UniProt P12527).
T3 sequence (P12527 1-673): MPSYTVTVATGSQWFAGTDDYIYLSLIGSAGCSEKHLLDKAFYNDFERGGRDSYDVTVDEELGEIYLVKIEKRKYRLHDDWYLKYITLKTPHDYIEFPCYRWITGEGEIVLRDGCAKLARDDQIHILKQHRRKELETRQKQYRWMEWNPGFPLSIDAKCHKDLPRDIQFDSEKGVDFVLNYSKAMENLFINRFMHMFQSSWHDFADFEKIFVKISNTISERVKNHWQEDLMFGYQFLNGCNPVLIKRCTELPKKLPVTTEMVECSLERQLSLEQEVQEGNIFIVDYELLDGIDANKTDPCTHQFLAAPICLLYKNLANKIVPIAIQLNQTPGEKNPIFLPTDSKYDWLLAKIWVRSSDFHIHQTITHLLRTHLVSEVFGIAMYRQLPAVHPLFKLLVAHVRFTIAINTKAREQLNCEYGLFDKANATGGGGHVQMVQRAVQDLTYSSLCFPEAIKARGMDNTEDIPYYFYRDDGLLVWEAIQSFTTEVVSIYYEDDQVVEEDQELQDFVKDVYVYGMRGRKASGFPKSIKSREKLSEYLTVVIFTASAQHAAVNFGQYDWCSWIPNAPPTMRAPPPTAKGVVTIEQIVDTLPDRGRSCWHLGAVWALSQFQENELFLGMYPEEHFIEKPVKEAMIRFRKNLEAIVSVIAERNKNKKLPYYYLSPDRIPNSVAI
Kind of data set: Test (b): heparinised rat blood challenged with A23187, LTB4 radioimmunoassay. In kind it is cell-based. On the set-up: incubating a test compound with heparinised rat blood; from tissue; host or cells: heparinised rat blood. The method, then:
as §1

The target in data set [3] is T3, 5-LO. Kind of data set: Test (c): ex vivo assay, oral dosing, blood challenged with A23187, LTB4 radioimmunoassay. In kind it is in vivo. Details: blood collection, heparinisation, challenge with A23187 and radioimmunoassay of LTB4 and PGE2; from tissue; host or cells: blood of dosed animals, heparinised ex vivo. As to conditions: A23187 challenge. The method, then: (c) An ex vivo assay system, which is a variation of test b) above, involving administration of a test compound (usually orally as the suspension produced when a solution of the test compound in dimethylsulphoxide is added to carboxymethylcellulose), blood collection, heparinisation, challenge with A23187 and radioimmunoassay of LTB4 and PGE2. This test provides an indication of the bioavailability of a test compound as an inhibitor of 5-LO or cyclooxygenase.

As for `O=c1c2ccccc2[nH]n1Cc1cccnc1` [1,2-dihydro-2-(3-pyridylmethyl) 3H indazol-3-one], in the data set on dogs, the “induction of methaemoglobin formation” value is “causes induction of methaemoglobin formation”.

`CCCCCNC(=O)c1cccc2[nH]n(C)c(=O)c12` [Example 5, 1,2-dihydro-2-methyl-4-(N-n-pentylcarbamoyl)-3H-indazol-3-one]: the IC50 turned out to be 3.1 µM on 5-LO [1], 72 µM against cyclooxygenase and 1.4 µM against 5-LO [2]. For the same molecule, the median effective dose (ED50) at 5-LO [3] fell in the range of 30 to 100 mg/kg.
